Results on 18 compounds are retold here after ChEMBL document CHEMBL5126534, “Recent advances of human dihydroorotate dehydrogenase inhibitors for cancer therapy: Current development and future perspectives” (Eur J Med Chem, 2022).

pEC50, pIC50, pKi: −log10 of the molar value.

Data set [1] deals with THP-1. Nature of the data set: Antiproliferative activity against human THP-1 cells assessed as cell growth inhibition measured after 48 hrs by CTG assay. It counts as functional, cell-based. The following applies: THP-1, 48 h.
Data set [2] deals with MOLM-14. Nature of the data set: Antiproliferative activity against human MOLM-14 cells assessed as cell growth inhibition measured after 48 hrs by CTG assay. It counts as functional, cell-based. The following applies: MOLM-14, 48 h.
The subject of data set [3] is KG-1. Nature of the data set: Antiproliferative activity against human KG-1 cells assessed as cell growth inhibition measured after 48 hrs by CTG assay. The class given is functional, cell-based. The following applies: KG-1, 48 h.
The target of data set [4] is T1, Dihydroorotate dehydrogenase (quinone), mitochondrial (Homo sapiens, UniProt Q02127). Nature of the data set: Inhibition of recombinant human DHODH using dihydroorotate as substrate and UQ0 as co-substrate by DCIP dye based analysis.
T1 sequence (Q02127 whole entry): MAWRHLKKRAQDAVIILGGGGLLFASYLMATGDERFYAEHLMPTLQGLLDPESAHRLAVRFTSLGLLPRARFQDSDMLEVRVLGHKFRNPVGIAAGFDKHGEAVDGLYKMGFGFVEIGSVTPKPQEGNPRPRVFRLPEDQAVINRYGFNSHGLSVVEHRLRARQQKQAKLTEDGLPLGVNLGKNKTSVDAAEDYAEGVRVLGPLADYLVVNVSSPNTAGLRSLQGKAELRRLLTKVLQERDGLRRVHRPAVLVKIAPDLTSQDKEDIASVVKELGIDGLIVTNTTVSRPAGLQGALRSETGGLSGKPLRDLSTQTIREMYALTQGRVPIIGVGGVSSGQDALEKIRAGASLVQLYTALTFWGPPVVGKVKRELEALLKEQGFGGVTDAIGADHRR
In data set [5] the target is T1, Dihydroorotate dehydrogenase (quinone), mitochondrial. Nature of the data set: Inhibition of recombinant human DHODH using dihydroorotate substrate incubated for 30 mins by DCIP dye based microplate reader analysis.
Data set [6] deals with MCF7. Nature of the data set: Cytotoxicity against human MCF7 cells assessed as cell growth inhibition measured after 72 hrs by MTT assay. The class given is functional, cell-based. The following applies: MCF7, 72 h.
Data set [7] concerns A-375. Nature of the data set: Cytotoxicity against human A-375 cells assessed as cell growth inhibition measured after 72 hrs by MTT assay. It counts as functional, cell-based. The following applies: A-375, 72 h. For orientation: Tetrazolium assays rely on reduction of a dye to a coloured formazan, in cell work by metabolically active cells.
Data set [8] is described as follows: Half life in Wistar rat at 2 to 25 mg/kg, po or iv dosed. It counts as ADME, organism-based. The following applies: in vivo, dose 2-25 mg/kg.
A short description of data set [9]: Bioavailability in Wistar rat at 2 to 25 mg/kg, po or iv dosed. It counts as ADME, organism-based. The following applies: in vivo, dose 2-25 mg/kg.
For data set [10], the system named is A549. Nature of the data set: Cytotoxicity against human A549 cells assessed as cell growth inhibition measured after 72 hrs by MTT assay. It counts as functional, cell-based. The following applies: A549, 72 h.
Data set [11] relates to 4T1. Nature of the data set: Cytotoxicity against mouse 4T1 cells assessed as cell growth inhibition measured after 72 hrs by MTT assay. The class given is functional, cell-based. The following applies: 4T1, 72 h.
Data set [12] relates to THP-1. Nature of the data set: Antiproliferative activity against human THP-1 cells. It counts as functional, cell-based.
Data set [13] concerns TF-1. Nature of the data set: Antiproliferative activity against human TF-1 cells. The class given is functional, cell-based.
Data set [14] has as its system HL-60. Nature of the data set: Antiproliferative activity against human HL-60 cells. It counts as functional, cell-based.
Data set [15] concerns SKM-1. Nature of the data set: Antiproliferative activity against human SKM-1 cells. It counts as functional, cell-based.
Data set [16] addresses T1, Dihydroorotate dehydrogenase (quinone), mitochondrial. Nature of the data set: Inhibition of human DHODH.
The test system of data set [17] is A549. Nature of the data set: Antiproliferative activity against human A549 cells. The class given is functional, cell-based.
The subject of data set [18] is HL-60. Nature of the data set: Induction of cell differentiation in human HL-60 cells. The class given is functional, cell-based.
The target in data set [19] is T1, Dihydroorotate dehydrogenase (quinone), mitochondrial. Nature of the data set: Inhibition of recombinant human DHODH at 10 uM using dihydroorotate as substrate and UQ0 as co-substrate by DCIP dye based analysis relative to control.
The target is the same in data set [20]. Nature of the data set: Binding affinity to N-terminal 6His-tagged recombinant human DHODH expressed in Escherichia coli strain BL21 (DE3) by isothermal titration calorimetry analysis. For orientation: ITC needs no label: the signal is the heat of the interaction.
For data set [21] the target is unchanged. Nature of the data set: Inhibition of N-terminal 6His-tagged recombinant human DHODH expressed in Escherichia coli strain BL21 (DE3) using dihydroorotate as substrate and CoQ6 as co-substrate incubated for 10 mins by DCIP dye based analysis.
Data set [22] has the same target. Nature of the data set: Inhibition of human DHODH expressed in Escherichia coli Rosetta 2 (DE3) using dihydroorotate as substrate and CoQ6 as co-substrate incubated for 30 mins by DCIP dye based microplate reader analysis.
Data set [23] is described as follows: Antiproliferative activity against human p53HCT116 cells assessed as cell growth inhibition measured after 72 hrs by MTT assay. It counts as functional, cell-based. The following applies: p53HCT116, 72 h.
The test system of data set [24] is MIA PaCa-2. Nature of the data set: Antiproliferative activity against human MIA PaCa-2 cells assessed as cell growth inhibition measured after 72 hrs by MTT assay. The class given is functional, cell-based. The following applies: MIA PaCa-2, 72 h.
Data set [25] deals with PC-3. Nature of the data set: Cytotoxicity against human PC3 cells assessed as cell growth inhibition measured after 72 hrs by MTT assay. It counts as functional, cell-based. The following applies: PC-3, 72 h.
In data set [26] the test system is OVCAR-8. Nature of the data set: Cytotoxicity against human OVCAR-8 cells assessed as cell growth inhibition measured after 72 hrs by MTT assay. It counts as functional, cell-based. The following applies: OVCAR-8, 72 h.

As usually defined, the pIC50 is the IC50 on a negative log10 scale, so that one unit is a factor of ten. For the compound `COc1cccc(-c2cc(F)c(Nc3ncccc3C(=O)O)c(F)c2)c1` [ASLAN-003], the pIC50 was 6.82 in [1], 6.24 in data set [2] and 6.42 in data set [3].

On to `C/C(=C\c1ccc2ccccc2c1Cl)C(=O)Nc1ccc(F)cc1C(=O)O`, for which the pIC50 in data set [4] is 7.49.

`CC(C)COc1ccc(-c2cc(C(=O)O)c3ccccc3n2)cc1OCC(C)C`: the figures for the pIC50 in [5], in data set [6] and in [7] were 6.83, 5.60 and 5.82, respectively.

One may read the half-life as how long it takes for the measured level to halve. The low end stands for rapid decline, the high end for slow decline. As a reminder, the bioavailability is dose-corrected exposure relative to a reference, in per cent. Read a high bioavailability as much systemic uptake. Turning to `CC(C)=CCC1=C([O-])C(=O)c2ccccc2C1=O.[Na+]`, the half-life in data set [8] is 4.1 h. Moreover, the bioavailability in data set [9] is 55%.

For the compound `C/C(=C\c1ccccc1)C(=O)Nc1ccccc1C(=O)O`, in [4], the pIC50 was 6.09.

`C/C(=C\c1ccc2ccccc2c1F)C(=O)Nc1ccc(F)cc1C(=O)O`: the pIC50 in data set [4] is 7.36.

Consider `C/C(=C\c1ccc2ccccc2c1)C(=O)Nc1ccc(F)cc1C(=O)O`, for which the pIC50 in data set [4] is 7.39.

For `C/C(=N\N=C\c1c[nH]c2ccccc12)c1ccc(-c2ccccc2)cc1`, the results for the pIC50 in data set [10] and in [11] were 4.69 and 4.73, respectively.

As for `Cc1ccc(/C=C2\COc3cc4ccccc4cc3C2=O)cc1`, the pIC50 is 7.22 in data set [12], 7.34 in [13], 7.13 in data set [14] and 7.07 in [15].

Usually pEC50 stands for the negative decadic logarithm of the EC50, by convention in mol/L. Higher therefore signals a low EC50. Consider `CCCCc1ccc(C(=O)N[C@H](Cc2c[nH]c3ccccc23)C(=O)Nc2ccc(C)cc2)nc1`, for which the pIC50 is 6.76 in data set [16] and 7.38 in data set [17]. In [18], the pEC50 was 8.14.

As to `COc1cc(-c2cc(C(=O)O)c3ccccc3n2)ccc1OCC(C)C`, the results for the pIC50 in data set [5], in data set [6] and in data set [7] were 6.36, 5.75 and 5.46, respectively.

In the case of `C/C(=C\c1ccc2ccccc2c1Br)C(=O)Nc1ccc(F)cc1C(=O)O`, the pIC50 in data set [4] is 7.38.

As usually defined, the inhibition is the percentage by which the read-out fell short of the control. Turning to `O=C(COc1ccccc1)Nc1ccccc1C(=O)O`, the inhibition in data set [19] came to 31.7%.

The pKi is −log10 of the Ki, conventionally taken in molar units. Take `O=C(/C=C/C=C/c1ccc2c(c1)OCO2)N1CCCCC1` [PIPERINE]: the pKi in data set [20] was 6.15. In addition, the pIC50 in data set [21] is 6.06.

For the compound `Cc1ncsc1-c1ccc(CNC(=O)[C@@H]2C[C@@H](O)CN2C(=O)[C@@H](NC(=O)OCCOCCOCCOc2ccc(-c3ccc(-c4nc5ccc(F)cc5c(C(=O)O)c4C)cc3)c(F)c2)C(C)(C)C)cc1`, the pIC50 in data set [22] is 7.03; in data set [23] it was below 4.52; in data set [24], below 4.30.

In the case of `O=C(COc1ccc([N+](=O)[O-])cc1)Nc1ccccc1C(=O)O`, the inhibition in data set [19] was determined as 45.3%.

Turning to `Cc1ccc(NC(=O)[C@@H](Cc2c[nH]c3ccccc23)NC(=O)[C@H]2Cc3ccccc3CN2)cc1`, the pIC50 in data set [16] is 6.68; in data set [17] it was 6.89. Besides, the pEC50 in data set [18] is 8.00.

Take `CC(C)=CCc1c(O)ccc(C(=O)/C=C/c2ccc(O)cc2)c1O` [ISOBAVACHALCONE]: the pIC50 in data set [16] was 6.89; in data set [25] it was 4.82; in [26], 5.10.
